Reference: patent publication US20060069132A1, “Azolecarboxamide herbicides” (priority 2004, published 2006)

How the values were obtained:
barnyardgrass = assay: Test C flooded paddy test; format: in vivo, Echinochloa crus-galli; conditions: for Plant response rating, Barnyardgrass: visual rating after 12 to 14 days
Summary of the method: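 Scoring by eye, 12–14 days post-treatment, greenhouse-held plants vs. controls; 0 no effect, 100 complete control. Sprayed at 1–4 leaves (2–18 cm); paddy barnyardgrass at 2 leaves, flooded.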

velvetleaf = assay: Test A pre-/postemergence herbicide test; format: in vivo, Abutilon theophrasti
Summary of the method: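 Pre: seeded sandy loam, directed soil spray, compound in non-phytotoxic solvent + surfactant. Post: 1–2-leaf plants (2–10 cm), sprayed to runoff. Greenhouse ~10 d; visual injury vs untreated, 0–100 scale.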

[1] = test system: smallflower umbrella sedge; assay: Test C flooded paddy test; format: in vivo, Cyperus difformis; conditions: for Plant response rating, Sedge, Umbrella: visual rating after 12 to 14 days
rice = assay: Test C flooded paddy test; format: in vivo, Oryza sativa; conditions: for Plant response rating, Rice: visual rating after 12 to 14 days
Summary of the method: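 Injury scored visually against controls on a 0 (no effect) to 100 (complete control) scale, 12 to 14 days after treatment in greenhouse. Flooded paddy plants treated at 2-leaf stage; postemergence plants at 1- to 4-leaf stage, 2 to 18 cm tall.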

[2] = 62 g ai/ha, scale 0 to 100 (0 no effect, 100 complete control)
[3] = 125 g ai/ha, scale 0 to 100 (0 no effect, 100 complete control)
[4] = 250 g ai/ha, scale of 0 to 100, 0 is no effect, 100 is complete control
[5] = 500 g ai/ha, scale 0 to 100 (0 no effect, 100 complete control)
[6] = Postemergence, 500 g ai/ha, 0 to 100 scale, 0 no effect, 100 complete control
[7] = Postemergence, 2000 g ai/ha, 0 to 100 scale, 0 no effect, 100 complete control
[8] = Preemergence, 2000 g ai/ha, visual rating, 0 to 100 scale (0 no effect, 100 complete control)
[9] = preemergence, 500 g ai/ha, visual injury, 0 to 100 scale (0 no effect, 100 complete control)
[10] = 125 g ai/ha, scale of 0 to 100, 0 is no effect, 100 is complete control
[11] = 250 g ai/ha, scale 0 to 100 (0 no effect, 100 complete control)

Structure (SMILES): CCc1nc(C(C)(C)C)sc1C(=O)Nc1cccc(C(=O)NC(C)(C)C)n1 [Compound 216]
- Barnyardgrass plant response rating (barnyardgrass; [2]): 0
- Barnyardgrass plant response rating (barnyardgrass; [3]): 0
- Barnyardgrass plant response rating (barnyardgrass; [4]): 0
- Plant response rating, Barnyardgrass (barnyardgrass; [5]): 30
- Velvetleaf plant response rating (velvetleaf; [6]): 25
- Plant response rating, Velvetleaf (velvetleaf; [7]): 35
- Velvetleaf plant response rating (velvetleaf; [8]): 30
- Velvetleaf plant response rating (velvetleaf; [9]): 10
- Sedge, Umbrella plant response rating [1, 2]: 20
- Sedge, Umbrella plant response rating [1, 3]: 30
- Sedge, Umbrella plant response rating [1, 4]: 30
- Plant response rating, Sedge, Umbrella [1, 5]: 50
- Rice plant response rating (rice; [2]): 0
- Rice plant response rating (rice; [3]): 0
- Rice plant response rating (rice; [4]): 0
- Plant response rating, Rice (rice; [5]): 30

Structure (SMILES): CCn1nc(C(C)(C)C)cc1C(=O)Nc1cccc(C(=O)NCCF)c1 [Compound 45]
- Barnyardgrass plant response rating (barnyardgrass; [2]): 25
- Barnyardgrass plant response rating (barnyardgrass; [10]): 30
- Plant response rating, Barnyardgrass (barnyardgrass; [11]): 60
- Plant response rating, Barnyardgrass (barnyardgrass; [5]): 80
- Plant response rating, Velvetleaf (velvetleaf; [7]): 65
- Velvetleaf plant response rating (velvetleaf; Preemergence, 500 g ai/ha, visual rating, 0 to 100 scale (0 no effect, 100 complete control)): 25
- Velvetleaf plant response rating (velvetleaf; Preemergence, 2000 g ai/ha, 0 to 100 scale, 0 no effect, 100 complete control): 65
- Sedge, Umbrella plant response rating [1, 2]: 55
- Sedge, Umbrella plant response rating [1, 10]: 60
- Plant response rating, Sedge, Umbrella [1, 11]: 80
- Plant response rating, Sedge, Umbrella [1, 5]: 80
- Rice plant response rating (rice; [2]): 30
- Rice plant response rating (rice; [10]): 30
- Plant response rating, Rice (rice; [11]): 35
- Plant response rating, Rice (rice; [5]): 65

Structure (SMILES): CCc1nc(C(C)(C)C)sc1C(=O)Nc1cccc(C(=O)NCCF)c1 [Compound 209]
- Barnyardgrass plant response rating (barnyardgrass; [2]): 0
- Barnyardgrass plant response rating (barnyardgrass; [3]): 55
- Barnyardgrass plant response rating (barnyardgrass; [4]): 70
- Plant response rating, Barnyardgrass (barnyardgrass; [5]): 80
- Velvetleaf plant response rating (velvetleaf; [6]): 10
- Plant response rating, Velvetleaf (velvetleaf; [7]): 20
- Velvetleaf plant response rating (velvetleaf; [8]): 75
- Velvetleaf plant response rating (velvetleaf; [9]): 10
- Sedge, Umbrella plant response rating [1, 2]: 55
- Sedge, Umbrella plant response rating [1, 3]: 55
- Sedge, Umbrella plant response rating [1, 4]: 65
- Plant response rating, Sedge, Umbrella [1, 5]: 80
- Rice plant response rating (rice; [2]): 0
- Rice plant response rating (rice; [3]): 45
- Rice plant response rating (rice; [4]): 45
- Plant response rating, Rice (rice; [5]): 65

Structure (SMILES): CCNC(=O)c1ccc(F)c(NC(=O)c2cc(C(C)(C)C)nn2CC)n1 [Compound 278]
- Barnyardgrass plant response rating (barnyardgrass; [2]): 0
- Barnyardgrass plant response rating (barnyardgrass; [3]): 0
- Barnyardgrass plant response rating (barnyardgrass; [4]): 0
- Plant response rating, Barnyardgrass (barnyardgrass; [5]): 25
- Velvetleaf plant response rating (velvetleaf; [6]): 20
- Plant response rating, Velvetleaf (velvetleaf; [7]): 25
- Velvetleaf plant response rating (velvetleaf; [8]): 35
- Velvetleaf plant response rating (velvetleaf; [9]): 20
- Sedge, Umbrella plant response rating ([1]; 62 g ai/ha, scale 0 to 100): 0
- Sedge, Umbrella plant response rating [1, 3]: 25
- Sedge, Umbrella plant response rating [1, 4]: 65
- Plant response rating, Sedge, Umbrella [1, 5]: 75
- Rice plant response rating (rice; 62 g ai/ha, scale 0 to 100): 0
- Rice plant response rating (rice; [3]): 0
- Rice plant response rating (rice; [4]): 15
- Plant response rating, Rice (rice; [5]): 30

Structure (SMILES): C#CCNC(=O)c1cccc(NC(=O)c2sc(C(C)(C)C)nc2CC)c1 [Compound 319]
- Barnyardgrass plant response rating (barnyardgrass; [2]): 0
- Barnyardgrass plant response rating (barnyardgrass; [3]): 25
- Barnyardgrass plant response rating (barnyardgrass; [4]): 50
- Plant response rating, Barnyardgrass (barnyardgrass; [5]): 65
- Velvetleaf plant response rating (velvetleaf; [6]): 20
- Plant response rating, Velvetleaf (velvetleaf; [7]): 30
- Velvetleaf plant response rating (velvetleaf; [8]): 45
- Velvetleaf plant response rating (velvetleaf; [9]): 35
- Sedge, Umbrella plant response rating ([1]; 62 g ai/ha, scale 0 to 100): 20
- Sedge, Umbrella plant response rating [1, 3]: 35
- Sedge, Umbrella plant response rating [1, 4]: 70
- Plant response rating, Sedge, Umbrella [1, 5]: 80
- Rice plant response rating (rice; 62 g ai/ha, scale 0 to 100): 0
- Rice plant response rating (rice; [3]): 35
- Rice plant response rating (rice; [4]): 35
- Plant response rating, Rice (rice; [5]): 70

Structure (SMILES): CCn1nc(C(C)(C)C)cc1C(=O)Nc1cncc(C(=O)N2CC=CC2)n1 [Compound 290]
- Barnyardgrass plant response rating (barnyardgrass; [2]): 0
- Barnyardgrass plant response rating (barnyardgrass; [3]): 0
- Barnyardgrass plant response rating (barnyardgrass; [4]): 25
- Plant response rating, Barnyardgrass (barnyardgrass; [5]): 40
- Velvetleaf plant response rating (velvetleaf; [6]): 20
- Plant response rating, Velvetleaf (velvetleaf; [7]): 30
- Velvetleaf plant response rating (velvetleaf; [8]): 30
- Velvetleaf plant response rating (velvetleaf; [9]): 15
- Sedge, Umbrella plant response rating ([1]; 62 g ai/ha, scale 0 to 100): 0
- Sedge, Umbrella plant response rating [1, 3]: 25
- Sedge, Umbrella plant response rating [1, 4]: 65
- Plant response rating, Sedge, Umbrella [1, 5]: 70
- Rice plant response rating (rice; 62 g ai/ha, scale 0 to 100): 0
- Rice plant response rating (rice; [3]): 0
- Rice plant response rating (rice; [4]): 15
- Plant response rating, Rice (rice; [5]): 45
